# pIC50: −log10 of the molar value. The source made the active and inactive calls. The rule behind the calls is not given here.
# How the values were obtained:
# [1] = target: Mitogen-activated protein kinase 14 (Homo sapiens, UniProt Q16539); assay: Inhibition of bacterially expressed activated p38alpha pre-incubated 10 mins measured after 45 mins by scintillation counting
# [2] = tested on: PBMC; assay: Antiinflammatory activity in human PBMC assessed as inhibition of LPS-induced TNFalpha production after 6 hrs by ELISA; format: functional, cell-based
# [3] = Aqueous solubility of the compound at pH 6.5; format: physicochemical; conditions: buffer
# [4] = Selectivity ratio of IC50 for p38alpha to IC50 for LIMK1
# [5] = Selectivity ratio of IC50 for p38alpha to IC50 for LIMK2
# [6] = target: Tyrosine-protein kinase ABL1 (Homo sapiens) (UniProt P00519); assay: Inhibition of ABL1 at 10 uM relative to control
# [7] = target: 5'-AMP-activated protein kinase catalytic subunit alpha-1 (Homo sapiens) (UniProt Q13131); assay: Inhibition of AMPKA1 at 10 uM relative to control
# [8] = target: Aurora kinase A (Homo sapiens) (UniProt O14965); assay: Inhibition of aurora A at 10 uM relative to control
# [9] = target: Aurora kinase C (Homo sapiens) (UniProt Q9UQB9); assay: Inhibition of aurora C at 10 uM relative to control
# [10] = target: Calcium/calmodulin-dependent protein kinase type 1 (Homo sapiens) (UniProt Q14012); assay: Inhibition of CAMK1A at 10 uM relative to control
# [11] = target: Calcium/calmodulin-dependent protein kinase type 1D (Homo sapiens) (UniProt Q8IU85); assay: Inhibition of CAMK1D at 10 uM relative to control
# [12] = target: Cyclin-dependent kinase 2 (Homo sapiens) (UniProt P24941); assay: Inhibition of CDK2 at 10 uM relative to control
# [13] = target: Casein kinase I isoform epsilon (Homo sapiens) (UniProt P49674); assay: Inhibition of CK1E at 10 uM relative to control
# [14] = target: Dual specificity protein kinase CLK1 (Homo sapiens) (UniProt P49759); assay: Inhibition of CLK1 at 10 uM relative to control
# [15] = target: Tyrosine-protein kinase CSK (Homo sapiens) (UniProt P41240); assay: Inhibition of CSK at 10 uM relative to control
# [16] = target: Death-associated protein kinase 2 (Homo sapiens) (UniProt Q9UIK4); assay: Inhibition of DAPK2 at 10 uM relative to control
# [17] = target: Epidermal growth factor receptor (Homo sapiens) (UniProt P00533); assay: Inhibition of EGFR at 10 uM relative to control
# [18] = target: Ephrin type-A receptor 2 (Homo sapiens) (UniProt P29317); assay: Inhibition of EPHA2 at 10 uM relative to control
# [19] = target: Ephrin type-B receptor 4 (Homo sapiens) (UniProt P54760); assay: Inhibition of EPHB4 at 10 uM relative to control
# [20] = target: Fibroblast growth factor receptor 1 (Homo sapiens) (UniProt P11362); assay: Inhibition of FGF1R at 10 uM relative to control
# [21] = target: Receptor-type tyrosine-protein kinase FLT3 (Homo sapiens) (UniProt P36888); assay: Inhibition of FLT3 at 10 uM relative to control
# Chain of Receptor-type tyrosine-protein kinase FLT3 (Homo sapiens) (P36888 whole entry): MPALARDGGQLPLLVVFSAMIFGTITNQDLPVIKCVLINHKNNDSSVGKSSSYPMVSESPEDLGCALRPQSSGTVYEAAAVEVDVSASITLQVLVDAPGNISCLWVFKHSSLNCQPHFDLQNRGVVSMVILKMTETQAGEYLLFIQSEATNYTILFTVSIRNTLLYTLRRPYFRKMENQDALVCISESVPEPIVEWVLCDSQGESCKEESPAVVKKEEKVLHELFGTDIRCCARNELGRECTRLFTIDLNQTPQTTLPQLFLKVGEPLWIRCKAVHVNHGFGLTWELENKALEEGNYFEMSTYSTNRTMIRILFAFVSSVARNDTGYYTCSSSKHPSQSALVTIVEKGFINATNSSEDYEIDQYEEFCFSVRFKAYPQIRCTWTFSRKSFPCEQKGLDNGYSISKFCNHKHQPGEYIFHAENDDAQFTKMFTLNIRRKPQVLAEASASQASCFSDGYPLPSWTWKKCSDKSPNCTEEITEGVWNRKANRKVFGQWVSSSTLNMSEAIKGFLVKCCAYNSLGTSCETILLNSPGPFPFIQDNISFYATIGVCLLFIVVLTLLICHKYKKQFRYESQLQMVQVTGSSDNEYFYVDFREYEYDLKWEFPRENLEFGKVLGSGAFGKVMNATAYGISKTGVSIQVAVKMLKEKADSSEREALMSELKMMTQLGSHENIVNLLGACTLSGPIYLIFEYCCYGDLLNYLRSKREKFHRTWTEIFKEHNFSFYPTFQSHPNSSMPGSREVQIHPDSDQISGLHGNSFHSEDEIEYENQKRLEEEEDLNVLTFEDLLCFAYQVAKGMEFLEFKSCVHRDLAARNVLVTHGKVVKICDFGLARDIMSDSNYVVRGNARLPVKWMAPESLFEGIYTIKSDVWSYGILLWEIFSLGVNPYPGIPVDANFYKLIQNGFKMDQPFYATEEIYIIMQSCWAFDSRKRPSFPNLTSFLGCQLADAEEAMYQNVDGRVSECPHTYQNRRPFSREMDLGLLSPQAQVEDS
# [22] = target: Cyclin-G-associated kinase (Homo sapiens) (UniProt O14976); assay: Inhibition of GAK at 10 uM relative to control
# [23] = target: Insulin-like growth factor 1 receptor (Homo sapiens) (UniProt P08069); assay: Inhibition of IGF1R at 10 uM relative to control
# [24] = target: Insulin receptor (Homo sapiens) (UniProt P06213); assay: Inhibition of INSR at 10 uM relative to control
# [25] = target: Vascular endothelial growth factor receptor 2 (Homo sapiens) (UniProt P35968); assay: Inhibition of KDR at 10 uM relative to control
# [26] = target: Mitogen-activated protein kinase kinase kinase 4 (Homo sapiens) (UniProt Q9Y6R4); assay: Inhibition of MAP3K4 at 10 uM relative to control
# [27] = target: Serine/threonine-protein kinase MARK2 (Homo sapiens) (UniProt Q7KZI7); assay: Inhibition of MARK2 at 10 uM relative to control
# [28] = target: MAP kinase-interacting serine/threonine-protein kinase 2 (Homo sapiens) (UniProt Q9HBH9); assay: Inhibition of MNK2 at 10 uM relative to control
# [29] = target: Serine/threonine-protein kinase Nek2 (Homo sapiens) (UniProt P51955); assay: Inhibition of NEK2 at 10 uM relative to control
# [30] = target: Serine/threonine-protein kinase PAK 1 (Homo sapiens) (UniProt Q13153); assay: Inhibition of PAK1 at 10 uM relative to control
# Chain of Serine/threonine-protein kinase PAK 1 (Homo sapiens) (Q13153 whole entry): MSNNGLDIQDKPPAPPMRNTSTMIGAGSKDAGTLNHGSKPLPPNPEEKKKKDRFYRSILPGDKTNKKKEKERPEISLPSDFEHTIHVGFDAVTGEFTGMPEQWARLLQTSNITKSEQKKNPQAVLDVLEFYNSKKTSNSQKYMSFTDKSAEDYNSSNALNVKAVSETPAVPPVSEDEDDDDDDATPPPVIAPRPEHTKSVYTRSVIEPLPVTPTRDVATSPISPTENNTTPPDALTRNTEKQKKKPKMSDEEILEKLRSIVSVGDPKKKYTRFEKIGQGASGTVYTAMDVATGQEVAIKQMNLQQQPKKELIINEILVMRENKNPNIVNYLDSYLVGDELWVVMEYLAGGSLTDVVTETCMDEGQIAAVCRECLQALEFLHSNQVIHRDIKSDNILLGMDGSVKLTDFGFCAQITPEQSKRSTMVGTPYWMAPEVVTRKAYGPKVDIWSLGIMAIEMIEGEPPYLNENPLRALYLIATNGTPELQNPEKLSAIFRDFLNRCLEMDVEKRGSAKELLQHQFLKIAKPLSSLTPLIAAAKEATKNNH
# [31] = target: Serine/threonine-protein kinase PAK 4 (Homo sapiens) (UniProt O96013); assay: Inhibition of PAK4 at 10 uM relative to control
# [32] = target: Serine/threonine-protein kinase PAK 5 (Homo sapiens) (UniProt Q9P286); assay: Inhibition of PAK5 at 10 uM relative to control
# [33] = target: Phosphorylase b kinase gamma catalytic chain, skeletal muscle/heart isoform (Homo sapiens) (UniProt Q16816); assay: Inhibition of PHKG1 at 10 uM relative to control
# Chain of Phosphorylase b kinase gamma catalytic chain, skeletal muscle/heart isoform (Homo sapiens) (Q16816 whole entry, looked up, canonical isoform): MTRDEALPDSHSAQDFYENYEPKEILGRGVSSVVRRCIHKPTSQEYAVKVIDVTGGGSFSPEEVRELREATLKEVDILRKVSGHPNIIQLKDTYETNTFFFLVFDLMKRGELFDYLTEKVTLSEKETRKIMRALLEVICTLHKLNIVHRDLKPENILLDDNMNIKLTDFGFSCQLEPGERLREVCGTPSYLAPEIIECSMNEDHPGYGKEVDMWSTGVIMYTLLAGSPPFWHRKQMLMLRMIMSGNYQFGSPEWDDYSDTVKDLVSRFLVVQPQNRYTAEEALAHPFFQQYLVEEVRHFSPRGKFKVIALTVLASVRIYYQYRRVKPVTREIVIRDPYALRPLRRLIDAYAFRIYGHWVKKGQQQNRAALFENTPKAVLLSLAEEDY
# [34] = target: Serine/threonine-protein kinase pim-1 (Homo sapiens) (UniProt P11309); assay: Inhibition of PIM1 at 10 uM relative to control
# [35] = target: Proto-oncogene tyrosine-protein kinase Src (Homo sapiens) (UniProt P12931); assay: Inhibition of SRC at 10 uM relative to control
# [36] = target: Serine/threonine-protein kinase 16 (Homo sapiens) (UniProt O75716); assay: Inhibition of STK16 at 10 uM relative to control
# [37] = target: Tyrosine-protein kinase SYK (Homo sapiens) (UniProt P43405); assay: Inhibition of SYK at 10 uM relative to control
# [38] = target: Angiopoietin-1 receptor (Homo sapiens) (UniProt Q02763); assay: Inhibition of TIE2 at 10 uM relative to control
# [39] = target: High affinity nerve growth factor receptor (Homo sapiens) (UniProt P04629); assay: Inhibition of TRKA at 10 uM relative to control
# Chain of High affinity nerve growth factor receptor (Homo sapiens) (P04629 33-796 limits assumed): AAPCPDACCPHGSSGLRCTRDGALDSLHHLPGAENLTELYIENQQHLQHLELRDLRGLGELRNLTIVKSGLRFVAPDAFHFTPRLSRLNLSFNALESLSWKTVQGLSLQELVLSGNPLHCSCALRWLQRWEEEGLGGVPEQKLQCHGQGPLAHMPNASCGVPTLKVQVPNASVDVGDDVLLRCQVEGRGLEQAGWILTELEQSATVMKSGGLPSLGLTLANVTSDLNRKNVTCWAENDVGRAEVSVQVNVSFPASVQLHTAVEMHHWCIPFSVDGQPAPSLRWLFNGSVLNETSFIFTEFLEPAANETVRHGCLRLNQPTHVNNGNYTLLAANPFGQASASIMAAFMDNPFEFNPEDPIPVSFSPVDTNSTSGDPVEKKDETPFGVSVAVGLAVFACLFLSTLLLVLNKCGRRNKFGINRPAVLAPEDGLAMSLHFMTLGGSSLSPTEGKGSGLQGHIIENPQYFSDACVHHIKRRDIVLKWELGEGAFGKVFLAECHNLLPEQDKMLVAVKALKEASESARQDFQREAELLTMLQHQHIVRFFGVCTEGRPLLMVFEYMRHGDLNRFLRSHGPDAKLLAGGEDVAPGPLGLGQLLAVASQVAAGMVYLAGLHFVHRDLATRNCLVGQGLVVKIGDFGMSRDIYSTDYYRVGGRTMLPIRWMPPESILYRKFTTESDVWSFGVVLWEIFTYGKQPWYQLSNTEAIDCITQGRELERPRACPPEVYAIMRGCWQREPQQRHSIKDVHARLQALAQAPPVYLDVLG
# [40] = target: Mitogen-activated protein kinase 8 (Homo sapiens) (UniProt P45983); assay: Inhibition of JNK1 at 10 uM relative to control
# [41] = target: Mitogen-activated protein kinase 10 (Homo sapiens) (UniProt P53779); assay: Inhibition of JNK3 at 10 uM relative to control
# Chain of Mitogen-activated protein kinase 10 (Homo sapiens) (P53779 whole entry): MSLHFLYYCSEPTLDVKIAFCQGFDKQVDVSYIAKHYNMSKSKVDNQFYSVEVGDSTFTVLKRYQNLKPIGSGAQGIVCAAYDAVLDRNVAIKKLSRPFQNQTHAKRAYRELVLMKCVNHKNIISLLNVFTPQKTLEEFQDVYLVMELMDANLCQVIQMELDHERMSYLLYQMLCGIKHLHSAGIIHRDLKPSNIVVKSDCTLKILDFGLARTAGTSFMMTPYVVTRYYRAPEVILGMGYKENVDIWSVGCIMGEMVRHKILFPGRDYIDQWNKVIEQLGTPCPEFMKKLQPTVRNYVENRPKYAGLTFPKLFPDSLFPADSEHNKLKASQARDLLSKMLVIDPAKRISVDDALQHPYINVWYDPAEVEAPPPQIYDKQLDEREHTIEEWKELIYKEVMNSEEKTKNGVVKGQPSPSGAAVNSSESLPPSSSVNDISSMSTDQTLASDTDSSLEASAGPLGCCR
# [42] = target: Mast/stem cell growth factor receptor Kit (Homo sapiens) (UniProt P10721); assay: Inhibition of KIT at 10 uM relative to control
# [43] = target: Platelet-derived growth factor receptor beta (Homo sapiens) (UniProt P09619); assay: Inhibition of PDGRB at 10 uM relative to control
# [44] = target: Myosin light chain kinase 2, skeletal/cardiac muscle (Homo sapiens) (UniProt Q9H1R3); assay: Inhibition of skeletal muscle MLCK at 10 uM relative to control; conditions: Muscle tissue
# [45] = target: LIM domain kinase 1 (Homo sapiens, UniProt P53667); assay: Inhibition of LIMK1
# Chain of LIM domain kinase 1 (P53667 whole entry, the tested form may be a part): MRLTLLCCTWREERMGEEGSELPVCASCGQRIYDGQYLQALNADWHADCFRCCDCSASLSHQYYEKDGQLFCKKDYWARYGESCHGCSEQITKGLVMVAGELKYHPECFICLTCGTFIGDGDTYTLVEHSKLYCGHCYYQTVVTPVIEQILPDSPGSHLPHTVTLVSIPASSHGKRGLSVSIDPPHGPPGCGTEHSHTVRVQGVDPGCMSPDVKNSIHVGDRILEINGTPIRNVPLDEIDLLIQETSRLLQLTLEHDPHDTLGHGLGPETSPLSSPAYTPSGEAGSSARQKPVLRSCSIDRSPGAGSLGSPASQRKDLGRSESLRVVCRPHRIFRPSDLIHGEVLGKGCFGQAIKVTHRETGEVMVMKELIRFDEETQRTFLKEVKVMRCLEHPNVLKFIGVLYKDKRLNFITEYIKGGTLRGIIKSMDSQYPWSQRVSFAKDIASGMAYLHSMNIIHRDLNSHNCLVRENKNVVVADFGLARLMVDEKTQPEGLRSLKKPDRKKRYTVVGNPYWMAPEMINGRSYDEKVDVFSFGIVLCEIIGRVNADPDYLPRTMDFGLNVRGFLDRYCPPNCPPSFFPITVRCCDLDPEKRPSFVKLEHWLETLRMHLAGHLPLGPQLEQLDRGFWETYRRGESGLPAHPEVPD
# [46] = target: LIM domain kinase 2 (Homo sapiens, UniProt P53671); assay: Inhibition of LIMK2
# Chain of LIM domain kinase 2 (P53671 whole entry, the tested form may be a part): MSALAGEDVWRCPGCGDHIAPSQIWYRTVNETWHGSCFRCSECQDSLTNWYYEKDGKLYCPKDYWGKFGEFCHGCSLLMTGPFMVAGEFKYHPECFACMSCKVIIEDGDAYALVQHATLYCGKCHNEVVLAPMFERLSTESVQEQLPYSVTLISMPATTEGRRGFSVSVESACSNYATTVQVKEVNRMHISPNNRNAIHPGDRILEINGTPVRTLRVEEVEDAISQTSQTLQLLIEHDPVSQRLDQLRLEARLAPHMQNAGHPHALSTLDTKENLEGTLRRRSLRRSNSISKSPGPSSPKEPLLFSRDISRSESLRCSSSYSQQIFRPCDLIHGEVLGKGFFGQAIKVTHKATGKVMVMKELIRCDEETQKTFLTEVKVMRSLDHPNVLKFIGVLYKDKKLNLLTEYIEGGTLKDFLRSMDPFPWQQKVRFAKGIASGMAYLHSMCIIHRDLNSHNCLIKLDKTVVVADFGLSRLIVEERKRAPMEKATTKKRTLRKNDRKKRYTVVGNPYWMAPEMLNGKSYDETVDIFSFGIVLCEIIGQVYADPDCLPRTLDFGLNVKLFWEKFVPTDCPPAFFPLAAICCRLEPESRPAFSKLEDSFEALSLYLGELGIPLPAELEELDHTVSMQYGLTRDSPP
# Chain of Mitogen-activated protein kinase 14 (Q16539 whole entry): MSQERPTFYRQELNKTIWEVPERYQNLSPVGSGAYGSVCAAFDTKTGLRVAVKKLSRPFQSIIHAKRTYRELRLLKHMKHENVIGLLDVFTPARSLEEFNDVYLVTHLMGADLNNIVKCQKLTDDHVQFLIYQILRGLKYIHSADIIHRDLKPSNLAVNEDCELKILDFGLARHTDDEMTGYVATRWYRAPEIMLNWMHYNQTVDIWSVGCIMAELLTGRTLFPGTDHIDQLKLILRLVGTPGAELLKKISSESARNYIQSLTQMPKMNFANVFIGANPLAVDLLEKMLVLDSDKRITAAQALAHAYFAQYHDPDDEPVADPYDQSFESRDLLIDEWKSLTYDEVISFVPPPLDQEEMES
compound,measurement,setting,value
Nc1ncc(-c2cc(-c3ccccc3Cl)nc(-c3ccccn3)n2)s1,pIC50,[1],6.94
Clc1ccccc1-c1cc(-c2cnc(NC3CC3)s2)nc(-c2ccccn2)n1,pIC50,[1],7.77
same,pIC50,[2],7.66
CCCNc1ncc(-c2cc(-c3ccccc3F)nc(-c3ccccn3)n2)s1,pIC50,[1],7.28
same,pIC50,[2],7.21
CCCNc1ncc(-c2ccnc(C3CC3)n2)s1,pIC50,[1],< 6.00
CCCNc1ncc(-c2cc(-c3ccccc3F)nc(C)n2)s1,pIC50,[1],6.28
Clc1ccccc1-c1cc(-c2cnc(NC3CCC3)s2)nc(-c2ccccn2)n1,pIC50,[1],7.80
same,pIC50,[2],7.55
CCCNc1ncc(-c2cc(-c3ccccc3F)nc(N)n2)s1,pIC50,[1],6.65
CCCNc1ncc(-c2cc(-c3ccc(F)cc3Cl)nc(-c3ccccn3)n2)s1,pIC50,[1],7.38
same,pIC50,[2],7.77
CC(C)Nc1ncc(-c2cc(-c3ccccc3Cl)ncn2)s1,pIC50,[1],7.34
same,pIC50,[2],7.51
CNC(=O)NCc1ccccc1-c1cc(-c2cnc(NC(C)C)s2)nc(NCCN(C)C)n1,pIC50,[1],8.70
same,pIC50,[2],7.92
CC(C)Nc1ncc(-c2cc(-c3ccccc3Cl)nc(NCCO)n2)s1,pIC50,[1],8.10
same,pIC50,[2],8.10
CC(C)Nc1ncc(-c2cc(-c3ccccc3Cl)nc(N(C)C)n2)s1,pIC50,[1],6.24
CCNc1ncc(-c2cc(-c3ccccc3Cl)nc(-c3ccccn3)n2)s1,pIC50,[1],7.77
same,pIC50,[2],6.92
CCCNc1ncc(-c2cc(-c3ccccc3OCC)nc(-c3ccccn3)n2)s1,pIC50,[1],6.07
CCCNc1ncc(-c2cc(-c3ccc(F)cc3)nc(-c3ccccn3)n2)s1,pIC50,[1],7.28
CC(C)Nc1ncc(-c2ccnc(-c3ccccc3Cl)n2)s1,pIC50,[1],6.65
CC(C)Nc1ncc(-c2cc(-c3ccccc3Cl)nc(NCC(O)CO)n2)s1 (stereo not given),pIC50,[1],8.22
same,pIC50,[2],7.96
CC[C@H](C)Nc1ncc(-c2cc(-c3ccccc3Cl)nc(-c3ccccn3)n2)s1,pIC50,[1],8.10
same,pIC50,[2],7.51
same,solubility,[3],< 5 ng/mL
CCNC(=O)NCc1ccccc1-c1cc(-c2cnc(NC(C)C)s2)nc(NCCN(C)C)n1,pIC50,[2],8.52
same,solubility,[3],5940 ng/mL
same,Selectivity ratio,[4],> 10000
same,Selectivity ratio,[5],> 10000
same,inhibition,[6],inactive
same,inhibition,[7],inactive
same,inhibition,[8],inactive
same,inhibition,[9],inactive
same,inhibition,[10],inactive
same,inhibition,[11],inactive
same,inhibition,[12],inactive
same,inhibition,[13],inactive
same,inhibition,[14],inactive
same,inhibition,[15],inactive
same,inhibition,[16],inactive
same,inhibition,[17],inactive
same,inhibition,[18],inactive
same,inhibition,[19],inactive
same,inhibition,[20],inactive
same,inhibition,[21],inactive
same,inhibition,[22],inactive
same,inhibition,[23],inactive
same,inhibition,[24],inactive
same,inhibition,[25],inactive
same,inhibition,[26],inactive
same,inhibition,[27],inactive
same,inhibition,[28],inactive
same,inhibition,[29],inactive
same,inhibition,[30],inactive
same,inhibition,[31],inactive
same,inhibition,[32],inactive
same,inhibition,[33],inactive
same,inhibition,[34],inactive
same,inhibition,[35],inactive
same,inhibition,[36],inactive
same,inhibition,[37],inactive
same,inhibition,[38],inactive
same,inhibition,[39],inactive
same,inhibition,[40],24.9%
same,inhibition,[41],0.2%
same,inhibition,[42],14.5%
same,inhibition,[43],11.3%
same,inhibition,[44],inactive
CCCNc1ncc(-c2ccnc(-c3ccccn3)n2)s1,pIC50,[1],6.50
CC(C)Nc1ncc(-c2cc(-c3ccccc3Cl)nc(N)n2)s1,pIC50,[1],7.80
same,pIC50,[2],< 6.60
CC(C)Nc1ncc(-c2cc(-c3ccccc3Cl)nc(NCCN(C)C)n2)s1,pIC50,[1],8.30
same,pIC50,[2],9.00
same,pIC50,[45],8.40
same,pIC50,[46],8.52
same,solubility,[3],994 ng/mL
CC(C)Nc1ncc(-c2cc(-c3ccccc3Cl)nc(-c3ccccn3)n2)s1,pIC50,[1],8.40
same,pIC50,[2],7.68
same,pIC50,[45],6.60
same,pIC50,[46],6.44
same,solubility,[3],< 5 ng/mL
CCCNc1ncc(-c2cc(-c3ccccc3F)nc(C3CC3)n2)s1,pIC50,[1],< 6.00
CCCNc1ncc(-c2cc(-c3ccccc3Cl)nc(-c3ccccn3)n2)s1,pIC50,[1],7.66
same,pIC50,[2],7.77
CC[C@@H](C)Nc1ncc(-c2cc(-c3ccccc3Cl)nc(-c3ccccn3)n2)s1,pIC50,[1],8.30
same,pIC50,[2],7.89
same,solubility,[3],< 5 ng/mL
CCCNc1ncc(-c2ccnc(-c3ccccc3F)n2)s1,pIC50,[1],< 4.52
CCCNc1ncc(-c2cc(-c3ccc(OCC)cc3Cl)nc(-c3ccccn3)n2)s1,pIC50,[1],5.40
CC(C)Nc1ncc(-c2cc(-c3ccccc3CNC(=O)NC3CC3)nc(NCCN(C)C)n2)s1,pIC50,[1],7.80
same,pIC50,[2],7.96

# Reference: ChEMBL document CHEMBL1255531, “Utilization of a nitrogen-sulfur nonbonding interaction in the design of new 2-aminothiazol-5-yl-pyrimidines as p38α MAP kinase inhibitors” (Bioorg Med Chem Lett, 2010)
